Laboratory results from article PMC6743424, “Phenolic acid phenethylesters and their corresponding ketones: Inhibition of 5‐lipoxygenase and stability in human blood and HepaRG cells” (Pharmacology Research & Perspectives, 2019).

What was measured:
[1] = Stability of inhibitory activity after incubation in whole blood; format: in vitro ADME, human; conditions: 3 μmol/L in whole blood up to 240 minutes before zymosan; LTB4
Experimental: Figure 4 Stability of the test compounds for the inhibition of the biosynthesis of 5‐LO products following incubation in plasma or in whole blood. (A) Test compounds were incubated (30 µmol/L) in human plasma for the indicated times at 37°C. Plasma (50 µL) containing the test compounds was then added to 450 µL of PMNL (10^7 cells/mL) which were then stimulated with 1 μmol/L of thapsigargin for 15 minutes at 37°C. The stimulation was then stopped, samples were processed, and 5‐LO products were measured using RP‐HPLC. (B) Whole blood was incubated in the presence of 3 μmol/L of test compounds or with their diluent (control, DMSO 0.1%) for the indicated times and was then stimulated with opsonized zymosan (4 mg/mL) for 30 minutes at 37°C. Blood was then centrifuged and plasma was collected and added to 1.2 mL of CH3OH:CH3CN (1:1). Samples were processed for analysis using RP‐HPLC for LTB4 quantification. All data are expressed as means ± SEM of at least three independent experiments. *Difference from time = 0, as determined using One‐way ANOVA with Dunnett's multiple comparison test (P < .05)

HepaRG cells = assay: Kinetics of test compound disappearance in HepaRG cell culture (HPLC); format: in vitro ADME, human; conditions: 30 µmol/L, 37°C; mean (95% confidence interval), four experiments
Experimental: Undifferentiated cryopreserved HepaRG cells (BioPredic International) were seeded in 12 or 24 well plates at 1.1 × 10^5 and 0.55 × 10^5 cells per well, respectively. Cells were cultured for 14 days in Williams E‐medium supplemented with 1% penicillin‐streptomycin (10 000 U/mL), 10% fœtal bovine serum (FBS), 50 mg/L hydrocortisone hemisuccinate, 5 mg/L insulin and 2 mmol/L Glutamax, and the medium was renewed every 2‐3 days. After 14 days, the culture medium was replaced by the same formulation as above supplemented with 2% dimethyl sulfoxide (DMSO) to induce differentiation. Cells were considered differentiated and ready for experiments after 14 days of differentiation (28 days after seeding).
Differentiated HepaRG cells, plated in 24 well plates, were washed with hepatocyte suspension medium (Williams E‐medium without phenol red, supplemented with 2 mmol/L Glutamax and […] HEPES) before addition of hepatocyte suspension medium (250 µL/well) containing (30 or 50 µmol/L) of the test compounds or their diluent. Cells were then incubated for 7.5, 15, 30, 60 or 90 minutes at 37°C after which the medium was removed.
In experiments where the test compounds incubated with HepaRG cells were to be measured, the cell layer was washed with 250 µL of hepatocyte suspension medium which was then pooled with the first medium. The mixture was then added to 250 µL of ice cold CH3OH:CH3CN (1:1, vol:vol) containing 10 µmol/L of phenethyl 3,4,5‐trimethoxycinnamate as an internal standard. The resulting solution was frozen at −80°C for 2 hour to precipitate any dissolved proteins, centrifuged at 1800g and the supernatant transferred to vials and stored at −20°C until HPLC analysis.
Figure 5 Kinetics of test compound disappearance in HepaRG cell culture. (A) HepaRG cells were incubated in 250 µL of hepatocyte suspension medium containing 30 µmol/L of test compounds for the indicated times at 37°C. Supernatants were removed and added to 250 µL of ice cold CH3OH:CH3CN (1:1 vol:vol) containing 10 µmol/L of phenethyl 3,4,5‐trimethoxycinnamate as an internal standard. The cell layer was washed with 250 µL of hepatocyte suspension medium and added to the above mixture. Samples were centrifuged at 1900g and the supernatants were collected for HPLC analysis as described in the Methods. Values are means ± SEM. (B) Calculated half‐lives of the test compounds in HepaRG cell cultures. Values are means (95% confidence interval). All data are from four independent experiments TEXT PRINTED IN THE PICTURE: (B) CAPE (2): Half-life (Minutes): 4.70 (4.42 - 5.02) | (B) 7: Half-life (Minutes): 6.42 (5.72 -7.31) | (B) 5: Half-life (Minutes): 3.71 (3.67-3.74) | (B) 8: Half-life (Minutes): 6.48 (6.01-7.04) | (B) 9: Half-life (Minutes): 4.38 (4.23 - 4.55) | (B) 10: Half-life (Minutes): 11.32 (10.21- 12.71)

5‐LO = target: T1, 5‐LO (Homo sapiens, UniProt P09917); assay: Ex vivo whole blood stimulation with opsonized zymosan, 5‐LO products; format: cell-based; set-up: endogenous in cells; host or cells: human polymorphonuclear leukocytes isolated from heparinized blood; conditions: 5‐LO product biosynthesis in whole blood, mean (95% confidence interval)
T1 sequence (P09917 1-674): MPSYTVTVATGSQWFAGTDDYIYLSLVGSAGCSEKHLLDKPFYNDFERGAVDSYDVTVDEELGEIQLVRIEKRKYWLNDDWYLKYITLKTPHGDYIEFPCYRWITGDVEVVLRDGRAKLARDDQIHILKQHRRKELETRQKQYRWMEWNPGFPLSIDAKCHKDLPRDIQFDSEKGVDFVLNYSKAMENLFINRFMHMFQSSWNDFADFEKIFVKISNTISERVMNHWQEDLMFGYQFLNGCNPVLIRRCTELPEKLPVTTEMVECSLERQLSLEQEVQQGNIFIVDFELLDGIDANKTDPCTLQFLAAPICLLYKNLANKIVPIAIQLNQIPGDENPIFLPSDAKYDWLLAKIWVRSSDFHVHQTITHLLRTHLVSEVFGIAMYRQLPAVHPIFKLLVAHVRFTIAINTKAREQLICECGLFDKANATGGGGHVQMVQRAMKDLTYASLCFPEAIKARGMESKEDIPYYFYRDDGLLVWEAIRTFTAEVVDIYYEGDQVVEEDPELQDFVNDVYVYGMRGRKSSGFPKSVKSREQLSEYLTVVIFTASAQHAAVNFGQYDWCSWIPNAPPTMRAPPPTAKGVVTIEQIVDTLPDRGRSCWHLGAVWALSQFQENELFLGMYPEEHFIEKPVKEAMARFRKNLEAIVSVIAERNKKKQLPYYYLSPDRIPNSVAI
Experimental: Blood was collected in tubes containing heparin as anticoagulant. Test compounds or their diluent control (DMSO, 0.1%) were added to 1 mL of heparinized blood at the indicated concentrations and incubated for 5 minutes in a water bath at 37°C. Stimulation was initiated with the addition of 125 μL of 40 mg/mL of opsonized zymosan, samples were then gently vortexed and incubated at 37°C for 30 minutes.34 Samples were then centrifuged at 960g for 10 minutes at 4°C, plasma was removed and added to tubes containing 4 volumes of CH3OH:CH3CN (1:1) containing 100 ng/mL of PGB2 as internal standard. Samples were stored overnight at −20°C, and then centrifuged at 3300g for 10 minutes. Samples were then purified on C18 cartridges, were eluted with CH3OH, dried under nitrogen, resuspended in 46% of CH3OH:CH3CN (1:1), and analyzed using RP‐HPLC as described above.

SMILES | Half-life in HepaRG cell cultures (HepaRG cells) | IC50 (5‐LO) | Stability of inhibitory activity after incubation in whole blood [1]
O=C(/C=C/c1cc(O)ccc1O)OCCc1ccccc1 [compound 5] | 3.71 (3.67-3.74) Minutes | 1 µM | –
O=C(/C=C/c1ccc(O)c(O)c1)CCCc1ccccc1 [compound 7] | 6.42 (5.72 -7.31) Minutes | 2.3 µM | complete loss of inhibitory activity after 240 minutes
COc1cc(/C=C/C(=O)CCc2ccccc2)cc(OC)c1O [compound 10, sinapic acid phenethyl ketone] | 11.32 (10.21- 12.71) Minutes | 1.2 µM | near complete retention of inhibitory activity

More lines, main results first:

Half-life in HepaRG cell cultures (HepaRG cells) | IC50 (5‐LO) | SMILES | Stability of inhibitory activity after incubation in whole blood [1]
4.70 (4.42 - 5.02) Minutes | 3.58 µM | O=C(/C=C/c1ccc(O)c(O)c1)OCCc1ccccc1 [CAPE (2), caffeic acid phenethyl ester, reference compound] | complete loss of inhibitory activity after 240 minutes
6.48 (6.01-7.04) Minutes | 1.15 µM | O=C(/C=C/c1cc(O)ccc1O)CCc1ccccc1 [compound 8] | –
